Measured values as given in patent US20260085034A1, “N-(BENZHYDRYL)CYCLOALKYLCARBOXAMIDE DERIVATIVES AS INHIBITORS OF GLYCOGEN SYNTHASE 1 (GYS1) AND METHODS OF USE THEREOF” (Maze Therapeutics, Inc., priority 2022, published 2026).

Target: T1, recombinant hGYS2/GN1 protein (Homo sapiens, UniProt P54840)
T1 sequence (P54840 1-703): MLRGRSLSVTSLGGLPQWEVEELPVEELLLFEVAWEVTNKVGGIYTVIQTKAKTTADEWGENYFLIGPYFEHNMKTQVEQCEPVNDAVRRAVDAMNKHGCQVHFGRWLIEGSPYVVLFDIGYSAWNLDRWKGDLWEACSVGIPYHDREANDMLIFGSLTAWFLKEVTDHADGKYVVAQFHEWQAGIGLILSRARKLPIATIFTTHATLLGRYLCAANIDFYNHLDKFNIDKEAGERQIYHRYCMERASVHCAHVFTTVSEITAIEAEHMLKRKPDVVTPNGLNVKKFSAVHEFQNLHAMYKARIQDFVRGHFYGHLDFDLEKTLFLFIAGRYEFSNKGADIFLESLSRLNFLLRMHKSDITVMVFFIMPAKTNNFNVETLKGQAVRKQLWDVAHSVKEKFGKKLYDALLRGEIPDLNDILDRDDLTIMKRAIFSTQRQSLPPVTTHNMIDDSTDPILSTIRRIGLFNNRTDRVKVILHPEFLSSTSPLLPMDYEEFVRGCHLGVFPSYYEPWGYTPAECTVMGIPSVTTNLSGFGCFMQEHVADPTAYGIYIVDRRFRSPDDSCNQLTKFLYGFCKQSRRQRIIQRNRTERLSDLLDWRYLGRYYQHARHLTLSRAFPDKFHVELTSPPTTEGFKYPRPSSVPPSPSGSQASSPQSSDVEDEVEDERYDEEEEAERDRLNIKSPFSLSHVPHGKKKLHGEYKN
T1 sequence (P46976 1-350 partner): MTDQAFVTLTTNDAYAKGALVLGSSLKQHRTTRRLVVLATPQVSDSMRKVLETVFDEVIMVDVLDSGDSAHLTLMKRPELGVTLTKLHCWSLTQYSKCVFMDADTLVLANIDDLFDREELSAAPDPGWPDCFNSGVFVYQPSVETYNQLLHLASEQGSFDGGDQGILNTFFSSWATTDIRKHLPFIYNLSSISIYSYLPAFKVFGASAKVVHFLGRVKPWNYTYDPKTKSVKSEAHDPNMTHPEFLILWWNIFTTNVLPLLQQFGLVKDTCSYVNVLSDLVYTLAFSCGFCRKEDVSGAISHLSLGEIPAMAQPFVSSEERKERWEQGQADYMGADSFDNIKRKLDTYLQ
Assay: GYS2 coupled enzyme assay (PK/LDH)
Format: biochemical
Settings: geometric mean of at least 2 assay runs; NADH absorbance at 340 nm
In short: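 Reaction in 50 mM Tris pH 7.5, 2 mM MgCl2, 100 mM KCl, 0.02% BSA, 1 mM TCEP, 2.5% DMSO, with 0.2% glycogen. Substrate buffer held 200 nM hGYS2/GN1, 2 mM each UDP-glucose, G6P and PEP, 0.6 mM NADH and PK/LDH, before 1:1 mixing. A340 slope over 10 min was control-normalized and Hill-fitted; IC50 = geometric mean of ≥2 runs, duplicates per run.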

Work on `CC(C)c1ccc([C@@H](NC(=O)[C@H]2C[C@@H]2F)c2ccn[nH]2)cc1F` (single isomer, unassigned) [compound 11] yielded an IC50 of over 100 µM.
